ChEMBL document CHEMBL3217702, “Oxadiazole isomers: all bioisosteres are not created equal” (Medchemcomm, 2012)
≈ marks a conversion by molar mass, not a printed value.

Tests used:
[1] = Intrinsic clearance in rat hepatocytes measured per 10^6 cells; type: ADME, cell-based, Hepatocyte; details: read-out: CLH
[2] = Permeability from apical to basolateral side in human Caco2 cells; type: ADME, cell-based; details: Caco-2, read-out: permeability
[3] = Hydrolytic stability of the compound at 10 uM at pH 6 at 65 degC after 18 hrs in presence of 2-methoxyethanol; type: physicochemical; details: buffer, pH 6, 18 h
[4] = Hydrolytic stability of the compound at 10 uM at pH 8 at 65 degC after 18 hrs in presence of 2-methoxyethanol; type: physicochemical; details: buffer, pH 8, 18 h
[5] = Hexadecane-phosphate buffer distribution coefficient, log P of the compound at pH 7.4; type: physicochemical
[6] = Hydrolytic stability of the compound at 10 uM at pH 4 at 65 degC after 18 hrs in presence of 2-methoxyethanol; type: physicochemical; details: buffer, pH 4, 18 h
[7] = Intrinsic clearance in human microsomes; type: ADME, Microsome
[8] = Permeability from basolateral to apical side in human Caco2 cells; type: ADME, cell-based; details: Caco-2, read-out: permeability
physchem [9] = details: octanol/aqueous phosphate buffer, pH 7.4
Description: Octanol-aqueous phosphate buffer distribution coefficient, log P of the compound at pH 7.4

[10] = Fraction unbound in human plasma; type: ADME, cell-free
physchem [11] = details: aqueous phosphate buffer, pH 7.4
Description: Solubility of the compound in aqueous phosphate buffer at pH 7.4 at 25 degC after 24 hrs

[12] = target: Voltage-gated inwardly rectifying potassium channel KCNH2 (Homo sapiens, UniProt Q12809); test: Inhibition of human ERG
Voltage-gated inwardly rectifying potassium channel KCNH2, sequence (Q12809 whole entry): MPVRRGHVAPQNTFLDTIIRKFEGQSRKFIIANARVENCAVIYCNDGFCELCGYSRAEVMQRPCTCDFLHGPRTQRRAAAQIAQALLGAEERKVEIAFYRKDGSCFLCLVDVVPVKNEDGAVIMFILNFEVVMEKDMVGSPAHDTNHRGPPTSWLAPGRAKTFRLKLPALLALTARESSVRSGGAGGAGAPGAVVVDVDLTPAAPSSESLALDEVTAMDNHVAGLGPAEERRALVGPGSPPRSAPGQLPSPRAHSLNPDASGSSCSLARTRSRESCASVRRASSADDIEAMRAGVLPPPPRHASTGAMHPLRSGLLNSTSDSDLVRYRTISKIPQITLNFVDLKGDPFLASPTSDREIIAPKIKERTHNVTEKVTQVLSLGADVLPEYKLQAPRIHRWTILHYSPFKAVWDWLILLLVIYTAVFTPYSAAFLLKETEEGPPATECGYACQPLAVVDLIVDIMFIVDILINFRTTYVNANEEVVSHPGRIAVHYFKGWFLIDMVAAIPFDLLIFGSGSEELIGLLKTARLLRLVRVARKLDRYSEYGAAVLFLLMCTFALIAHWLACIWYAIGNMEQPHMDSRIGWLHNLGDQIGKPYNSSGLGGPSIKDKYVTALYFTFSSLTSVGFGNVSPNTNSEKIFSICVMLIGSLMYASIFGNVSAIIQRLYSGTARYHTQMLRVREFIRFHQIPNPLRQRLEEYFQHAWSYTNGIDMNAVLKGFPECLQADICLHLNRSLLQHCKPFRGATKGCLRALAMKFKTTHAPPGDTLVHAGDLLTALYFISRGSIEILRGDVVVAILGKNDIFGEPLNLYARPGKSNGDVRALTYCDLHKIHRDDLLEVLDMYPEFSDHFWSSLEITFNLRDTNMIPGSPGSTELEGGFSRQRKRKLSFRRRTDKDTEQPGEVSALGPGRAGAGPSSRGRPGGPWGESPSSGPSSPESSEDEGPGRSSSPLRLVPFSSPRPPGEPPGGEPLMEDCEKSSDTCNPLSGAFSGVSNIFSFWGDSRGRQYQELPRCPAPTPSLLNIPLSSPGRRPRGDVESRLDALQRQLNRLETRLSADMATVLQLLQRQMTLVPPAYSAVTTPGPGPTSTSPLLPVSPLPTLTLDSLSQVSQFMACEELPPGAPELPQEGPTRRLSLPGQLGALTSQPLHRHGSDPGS

[13] = Fraction unbound in mouse plasma; type: ADME, cell-free
[14] = Fraction unbound in rat plasma; type: ADME, cell-free
[15] = Half life at 10 uM at pH 8 at 65 degC; type: physicochemical; details: buffer
[16] = Half life at 10 uM at pH 8 at 25 degC; type: physicochemical; details: buffer
[17] = Half life at 10 uM at pH 6 at 65 degC; type: physicochemical; details: buffer
[18] = Half life at 10 uM at pH 6 at 25 degC; type: physicochemical; details: buffer
[19] = Half life at 10 uM at pH 4 at 25 degC; type: physicochemical; details: buffer
[20] = Half life at 10 uM at pH 4 at 65 degC; type: physicochemical; details: buffer

Row | SMILES | hepatocyte CLint [1] | Papp A→B [2] | Stability [3] | Stability [4] | logP [5] | Stability [6] | microsomal CLint [7] | Papp B→A [8] | logD (physchem [9]) | fraction unbound [10] | solubility at 24 h (physchem [11]) | fraction unbound [13] | fraction unbound [14] | half-life at 10 µM [15] | half-life at 10 µM [16] | half-life at 10 µM [17] | half-life at 10 µM [18] | half-life at 10 µM [19] | half-life at 10 µM [20] | IC50 [12]
1 | C[C@@H]1CN(c2nnc(C(F)(F)F)o2)CCN1c1ncc(OCc2ccncc2C#N)cn1 | 53 µL/min/1e6 cells | 18 ×10⁻⁶ cm/s | Stable | Stable | 0.5 | Stable | 34 µL/min/mg | 21 ×10⁻⁶ cm/s | 2.7 | – | – | – | – | – | – | – | – | – | – | –
2 | CC(C)c1nc(N2CCN(c3ncc(OCc4ccncc4C#N)cn3)[C@H](C)C2)no1 | 70 µL/min/1e6 cells | 15 ×10⁻⁶ cm/s | Stable | Stable | 1.3 | Stable | 48 µL/min/mg | 6 ×10⁻⁶ cm/s | – | – | – | – | – | – | – | – | – | – | – | –
3 | C[C@@H]1CN(c2noc(C(F)(F)F)n2)CCN1c1ncc(OCc2ccncc2C#N)cn1 | 42 µL/min/1e6 cells | 23 ×10⁻⁶ cm/s | Unstable | Unstable | 2.9 | Unstable | 28 µL/min/mg | 6 ×10⁻⁶ cm/s | – | – | – | – | – | 2.88 h | 127 h | 8.64 h | 214 h | 137 h | 6.96 h | –

Continued, in another order:

Row | hepatocyte CLint [1] | Papp A→B [2] | Stability [3] | Stability [4] | logP [5] | Stability [6] | microsomal CLint [7] | Papp B→A [8] | logD (physchem [9]) | fraction unbound [10] | solubility at 24 h (physchem [11]) | fraction unbound [13] | fraction unbound [14] | half-life at 10 µM [15] | half-life at 10 µM [16] | half-life at 10 µM [17] | half-life at 10 µM [18] | half-life at 10 µM [19] | half-life at 10 µM [20] | SMILES | IC50 [12]
4 | 52 µL/min/1e6 cells | 13 ×10⁻⁶ cm/s | Stable | Stable | 1.4 | Stable | 40 µL/min/mg | 6 ×10⁻⁶ cm/s | – | – | – | – | – | – | – | – | – | – | – | C[C@@H]1CN(c2nc(C(F)(F)F)no2)CCN1c1ncc(OCc2ccncc2C#N)cn1 | –
5 | – | – | Stable | Stable | 1.4 | Stable | – | – | 2.8 | – | – | – | – | – | – | – | – | – | – | C[C@@H]1CN(c2noc(C(F)F)n2)CCN1c1ncc(OCc2ccncc2C#N)cn1 | –
6 | 63 µL/min/1e6 cells | 16 ×10⁻⁶ cm/s | Stable | Stable | -0.5 | Stable | 47 µL/min/mg | 13 ×10⁻⁶ cm/s | 2.6 | 0.071 | 150 µM (≈ 63.1 µg/mL) | 0.131 | 0.087 | – | – | – | – | – | – | CC(C)c1nnc(N2CCN(c3ncc(OCc4ccncc4C#N)cn3)[C@H](C)C2)o1 | > 28 µM
7 | 72 µL/min/1e6 cells | – | Stable | Stable | – | Stable | 55 µL/min/mg | – | – | – | – | – | – | – | – | – | – | – | – | CC(C)c1noc(N2CCN(c3ncc(OCc4ccncc4C#N)cn3)[C@H](C)C2)n1 | –
